The source of these data is US12655174B2, “Adenosine A3 receptor agonists, preparation methods and uses thereof” (ZHEJIANG VIMGREEN PHARMACEUTICALS, LTD., priority 2020, dated 2026).

The first data set concerns the target T1, ADORA3 receptor (CHO cells stably expressing ADORA3 receptor) (Homo sapiens, UniProt P0DMS8).
T1 construct: expressed in transfected cells
T1 sequence (P0DMS8 1-318): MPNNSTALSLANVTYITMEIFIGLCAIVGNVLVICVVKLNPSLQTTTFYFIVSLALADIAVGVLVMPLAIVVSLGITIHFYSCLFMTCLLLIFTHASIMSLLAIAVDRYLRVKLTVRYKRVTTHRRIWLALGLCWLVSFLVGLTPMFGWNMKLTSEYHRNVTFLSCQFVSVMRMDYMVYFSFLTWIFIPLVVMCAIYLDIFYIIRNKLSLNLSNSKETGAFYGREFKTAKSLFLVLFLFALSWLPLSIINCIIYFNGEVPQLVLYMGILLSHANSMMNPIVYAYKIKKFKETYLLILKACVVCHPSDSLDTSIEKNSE
The data set can be described thus: Effect of compound on intracellular cAMP level by adenosine A3 receptor agonism. Conditions: forskolin-stimulated. The format is cell-based. As to the method:
Example 26: Test the Effect of Compound on Intracellular cAMP Level by Adenosine A3 Receptor Agonism
• 1) 1×HBSS with Ca2+ and Mg2+ (14 mL), 1 M HEPES (75 μL), a 7.5% (w/v) BSA stabilizer (pH 7.4, 200 μL), and 20 mM rolipram (7.5 μL) were respectively prepared as cAMP assay buffer. • 2) Preparation of compound source plate • a. […] A 10 mM stock solution was subjected to a 3-fold serial dilution by 100% (v/v) DMSO to prepare 10 doses of the test substance. • c. 1 mM of Forskolin was prepared by 100% (v/v) DMSO. • 3) Preparation of test plate • a. Prior to the assay, CHO cells stably expressing ADORA3 receptor were harvested and the cells were counted by using a Countess cell counter. […] The cells were seeded at a density of 2,000 cells/well in a 384-well plate. • 4) 10 nL/well of the serially diluted compound and 10 nL/well of 1 mM of forskolin were transferred to each well with ADORA3 receptor expressing cells by using Echo550. • 5) A cell plate was centrifuged at 1,000 rpm for 1 minute and then stirred at 600 rpm for 2 minutes. The plate was incubated at 37° C. • 6) An Eu-cAMP tracer working solution and an Ulight-anti-cAMP working solution were prepared according to the following table.
• 7) 5 μl/well of the Eu-cAMP tracer working solution and 5 μl/well of the Ulight-anti-cAMP working solution were added to each well of the plate. […] 2. Data Analysis • 1) An activation percentage was calculated by using the following formula:
[formula] • % Activation: activation percentage • Ratiocpd: ratio of emissivity of test compound • RatioLow control: ratio of low emissivity • RatioHigh control: ratio of high emissivity • 2) EC50 was calculated by an XLfit using the Hill equation to fit the activity percentage and a log of a compound concentration. 3. Test Result
`CNC(=O)[C@H]1OC(n2cnc3c(NCc4ccccc4)nc(-c4ccccn4)nc32)[C@H](O)[C@@H]1O` (stereo in doubt) [compound 325, (2S,3S,4R,5S)-5-(6-(benzylamino)-2-(pyridin-2-yl)-9H-purin-9-yl)-3,4-dihydroxyl-N-methyltetrahydrofuran-2-carboxamide] displayed an EC50 of 9.62 nM.
`CNC(=O)[C@H]1O[C@@H](n2cnc3c(NC)nc(-c4cncc(Cl)c4)nc32)[C@H](O)[C@@H]1O` [compound 70, (2S,3S,4R,5R)-5-(2-(5-chloropyridin-3-yl)-6-(methylamino)-9H-purin-9-yl)-3,4-dihydroxyl-N-methyltetrahydrofuran-2-carboxamide] returned an EC50 of 1.23 nM.
On the same count and under the same terms, in the case of `CNC(=O)[C@H]1O[C@@H](n2cnc3c(NC)nc(-c4cccnc4)nc32)[C@H](O)[C@@H]1O` [compound 102, (2S,3S,4R,5R)-3,4-dihydroxyl-N-methyl-5-(6-(methylamino)-2-(pyridin-3-yl)-9H-purin-9-yl)tetrahydrofuran-2-carboxamide] it was 1.41 nM; in that of `CNC(=O)[C@H]1O[C@@H](n2cnc3c(NCc4cccc(C)n4)nc(-c4cccnc4)nc32)[C@H](O)[C@@H]1O` [compound 107], 5.22 nM.
In the case of `[2H]C([2H])([2H])NC(=O)[C@H]1O[C@@H](n2cnc3c(NCc4cc(C)cc(Cl)c4)nc(-c4cncc(Cl)c4)nc32)[C@H](O)[C@@H]1O` [compound 222, (2S,3S,4R,5R)-5-(6-((3-chloro-5-methylbenzyl)amino)-2-(5-chloropyridin-3-yl)-9H-purin-9-yl)-3,4-dihydroxyl-N-(methyl-d3)-tetrahydrofuran-2-carboxamide], the concentration giving a half-maximal response (EC50) was 0.89 nM. Against the preceding molecule, the EC50 is about 5.9-fold lower.
Same read-out and setting: in the case of `[2H]C([2H])([2H])NC(=O)[C@H]1O[C@@H](n2cnc3c(NCc4cccc(CC)c4)nc(-c4cncc(Cl)c4)nc32)[C@H](O)[C@@H]1O` [compound 223, (2S,3S,4R,5R)-5-(2-(5-chloropyridin-3-yl)-6-((3-ethylbenzyl)amino)-9H-purin-9-yl)-3,4-dihydroxyl-N-(methyl-d3)-tetrahydrofuran-2-carboxamide] it was 15.2 nM; in that of `[2H]C([2H])([2H])NC(=O)[C@H]1O[C@@H](n2cnc3c(NCc4cc(C)cc(C)c4)nc(-c4cncc(Cl)c4)nc32)[C@H](O)[C@@H]1O` [compound 224, (2S,3S,4R,5R)-5-(2-(5-chloropyridin-3-yl)-6-((3,5-dimethylbenzyl)amino)-9H-purin-9-yl)-3,4-dihydroxyl-N-(methyl-d3)-tetrahydrofuran-2-carboxamide], 1.34 nM.
Molecule `[2H]C([2H])([2H])NC(=O)[C@H]1O[C@@H](n2cnc3c(NCc4cc(F)ccc4Cl)nc(-c4cncc(Cl)c4)nc32)[C@H](O)[C@@H]1O` [compound 246, (2S,3S,4R,5R)-5-(6-(2-chloro-5-fluorobenzylamino)-2-(5-chloropyridin-3-yl)-9H-purin-9-yl)-3,4-dihydroxyl-N-(methyl-d3)-tetrahydrofuran-2-carboxamide] yielded an EC50 of 1.18 nM.
For the molecule `CNC(=O)[C@H]1O[C@@H](n2cnc3c(NCc4cccc(Cl)n4)nc(-c4cccnc4)nc32)[C@H](O)[C@@H]1O` [compound 247], the response was half-maximal at 4.16 nM (EC50).

Test system in the next data set: not listed separately
The data set can be described thus: Pharmacokinetic test of compound in SD rat. Format: in vivo. Conditions: SD rats, intragastric administration (IG), cassette dosing. As to the method:
Example 28: Pharmacokinetic Test of Compound in SD Rat
The animal species used in this experiment were SD rats. There were 3 animals per group. The rats were dosed in cassette format, i.e., multiple (1-6) different compounds were dosed simultaneously to the same group of the SD rats. The vehicle used for the drug was 5% DMSO+5% Solutl+90% ([…] methylcellulose M450), and the administration route was intragastric administration (IG).
In the case of `[2H]C([2H])([2H])NC(=O)[C@H]1O[C@@H](n2cnc3c(NCc4cocn4)nc(-c4cncc(Cl)c4)nc32)[C@H](O)[C@@H]1O` [compound 257, (2S,3S,4R,5R)-5-(2-(5-chloropyridin-3-yl)-6-((oxazol-4-ylmethyl)amino)-9H-purin-9-yl)-3,4-dihydroxyl-N-(methyl-d3)tetrahydrofuran-2-carboxamide], the “AUC_D” value turned out to be 96.00 kg·ng·h/mL/mg.
On the same count and under the same terms, to `[2H]C([2H])([2H])NC(=O)[C@H]1O[C@@H](n2cnc3c(NCc4cccc(OC)c4)nc(-c4cncc(Cl)c4)nc32)[C@H](O)[C@@H]1O` [compound 265, (2S,3S,4R,5R)-5-(2-(5-chloropyridin-3-yl)-6-(3-methoxybenzylamino)-9H-purin-9-yl)-3,4-dihydroxyl-N-(methyl-d3)-tetrahydrofuran-2-carboxamide] belongs 764.50 kg·ng·h/mL/mg.
As for `[2H]C([2H])([2H])NC(=O)[C@H]1O[C@@H](n2cnc3c(NCc4ccc(OC)cc4)nc(-c4cncc(Cl)c4)nc32)[C@H](O)[C@@H]1O` [compound 267, (2S,3S,4R,5R)-5-(2-(5-chloropyridin-3-yl)-6-(4-methoxybenzylamino)-9H-purin-9-yl)-3,4-dihydroxyl-N-(methyl-d3)-tetrahydrofuran-2-carboxamide], the “AUC_D” value turned out to be 82.98 kg·ng·h/mL/mg.
`[2H]C([2H])([2H])NC(=O)[C@H]1O[C@@H](n2cnc3c(NCc4cccc(C)n4)nc(-c4cncc(Cl)c4)nc32)[C@H](O)[C@@H]1O` [compound 271, (2S,3S,4R,5R)-5-(2-(5-chloropyridin-3-yl)-6-((6-methylpyridin-2-yl)methylamino)-9H-purin-9-yl)-3,4-dihydroxyl-N-(methyl-d3)-tetrahydrofuran-2-carboxamide]: the “AUC_D” value worked out at 1131.18 kg·ng·h/mL/mg.
In the case of `[2H]C([2H])([2H])NC(=O)[C@H]1O[C@@H](n2cnc3c(NCCC)nc(-c4cncc(Cl)c4)nc32)[C@H](O)[C@@H]1O` [compound 285, (2S,3S,4R,5R)-5-(2-(5-chloropyridin-3-yl)-6-(propylamino)-9H-purin-9-yl)-3,4-dihydroxyl-N-(methyl-d3)-tetrahydrofuran-2-carboxamide], the “AUC_D” value was 175.00 kg·ng·h/mL/mg.
Take `[2H]C([2H])([2H])NC(=O)[C@H]1O[C@@H](n2cnc3c(NCCOC)nc(-c4cncc(Cl)c4)nc32)[C@H](O)[C@@H]1O` [compound 288, (2S,3S,4R,5R)-5-(2-(5-chloropyridin-3-yl)-6-((2-methoxyethyl)amino)-9H-purin-9-yl)-3,4-dihydroxyl-N-(methyl-d3)-tetrahydrofuran-2-carboxamide]: the “AUC_D” value is 118.00 kg·ng·h/mL/mg.
In the case of `CNC(=O)[C@H]1O[C@@H](n2cnc3c(NCc4cccc(C)n4)nc(-c4cncc(C)c4)nc32)[C@H](O)[C@@H]1O` [compound 295, (2S,3S,4R,5R)-3,4-dihydroxyl-N-methyl-5-(6-(((6-methylpyridin-2-yl)methyl)amino)-2-(5-methylpyridin-3-yl)-9H-purin-9-yl)tetrahydrofuran-2-carboxamide], the “AUC_D” value amounted to 610.66 kg·ng·h/mL/mg.
For the molecule `[2H]C([2H])([2H])NC(=O)[C@H]1O[C@@H](n2cnc3c(NC(C)C)nc(-c4cncc(Cl)c4)nc32)[C@H](O)[C@@H]1O` [compound 319, (2S,3S,4R,5R)-5-(2-(5-chloropyridin-3-yl)-6-(isopropylamino)-9H-purin-9-yl)-3,4-dihydroxyl-N-(methyl-d3)tetrahydrofuran-2-carboxamide], the “AUC_D” value is 74.00 kg·ng·h/mL/mg.
For `[2H]C([2H])([2H])NC(=O)[C@H]1O[C@@H](n2cnc3c(NCc4cccc(F)c4)nc(-c4cncc(Cl)c4)nc32)[C@H](O)[C@@H]1O` [compound 321], the “AUC_D” value came to 1167.46 kg·ng·h/mL/mg.
On to `CNC(=O)[C@H]1O[C@@H](n2cnc3c(NCc4ccc(F)c(F)c4)nc(-c4cncc(Cl)c4)nc32)[C@H](O)[C@@H]1O` [compound 322, (2S,3S,4R,5R)-5-(2-(5-chloropyridin-3-yl)-6-((3,4-difluorobenzyl)amino)-9H-purin-9-yl)-3,4-dihydroxyl-N-methyltetrahydrofuran-2-carboxamide], for which the “AUC_D” value was 97.03 kg·ng·h/mL/mg.
Take `[2H]C([2H])([2H])NC(=O)[C@H]1O[C@@H](n2cnc3c(OCc4ccccc4)nc(-c4cncc(Cl)c4)nc32)[C@H](O)[C@@H]1O` [compound 323, (2S,3S,4R,5R)-5-(6-(benzyloxy)-2-(5-chloropyridin-3-yl)-9H-purin-9-yl)-3,4-dihydroxyl-N-(methyl-d3)-tetrahydrofuran-2-formamide]: the “AUC_D” value is 1309.00 kg·ng·h/mL/mg.
Consider `CCNC(=O)[C@H]1O[C@@H](n2cnc3c(N)nc(-c4cncc(Cl)c4)nc32)[C@H](O)[C@@H]1O` [compound 324, (2S,3S,4R,5R)-5-(6-amino-2-(5-chloropyridin-3-yl)-9H-purin-9-yl)-N-ethyl-3,4-dihydroxyltetrahydrofuran-2-formamide], for which the “AUC_D” value is 78.00 kg·ng·h/mL/mg.
